Laboratory results reported in US20230382924A1, “MODULATORS OF CYSTIC FIBROSIS TRANSMEMBRANE CONDUCTANCE REGULATOR” (VERTEX PHARMACEUTICALS INCORPORATED, priority 2020, published 2023).

Tests used:
Assay type in all cases: cell-based
[1] = target: T1, F508del (Homo sapiens, UniProt P13569, DEL508-508); test: 3T3 assay: membrane potential optical assay for F508del correction in NIH 3T3 cells; settings: for Emax: NIH3T3, read-out: 3T3 Max Activity
T1 construct: expressed in transfected cells
Excerpt: 1. Membrane Potential Optical Methods for Assaying F508del Modulation Properties of Compounds
The assay utilizes fluorescent voltage sensing dyes to measure changes in membrane potential using a fluorescent plate reader (e.g., FLIPR III, Molecular Devices, Inc.) as a readout for increase in functional F508del in NIH 3T3 cells. The driving force for the response is the creation of a chloride ion gradient in conjunction with channel activation by a single liquid addition step after the cells have previously been treated with compounds and subsequently loaded with a voltage sensing dye.
2. Identification of Corrector Compounds
To identify correctors of F508del, a single-addition HTS assay format was developed. This HTS assay utilizes fluorescent voltage sensing dyes to measure changes in membrane potential on the FLIPR III as a measurement for increase in gating (conductance) of F508del in F508del NIH 3T3 cells. The F508del NIH 3T3 cell cultures were incubated with the corrector compounds at a range of concentrations for 18-24 hours at 37° C., and subsequently loaded with a redistribution dye. The driving force for the response is a Cl^− ion gradient in conjunction with channel activation with forskolin in a single liquid addition step using a fluorescent plate reader such as FLIPR III.
Bath Solution #1: (in mM) NaCl 160, KCl 4.5, CaCl2) 2, MgCl2 1, HEPES 10, pH 7.4 with NaOH.
Chloride-free bath solution: Chloride salts in Bath Solution #1 (above) are substituted with gluconate salts.
NIH3T3 mouse fibroblasts stably expressing F508del are used for optical measurements of membrane potential. The cells are maintained at 37° C. in 5% CO2 and 90% humidity in Dulbecco's modified Eagle's medium supplemented with 2 mM glutamine, 10% fetal bovine serum, 1×NEAA, b-ME, 1×pen/strep, and 25 mM HEPES in 175 cm^2 culture flasks. For all optical assays, the cells were seeded at ˜20,000/well in 384-well matrigel-coated plates. For the correction assays, the cells are cultured at 37° C. with and without compounds for 16-24 hours.

[2] = target: T2, CFTR (Homo sapiens, UniProt P13569); test: Membrane Potential Dye, Enteroid Assay A; settings: for EC50: read-out: Ent. A EC50
How it was run: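 Enteroid cells were loaded with methyl oxonol membrane potential dye (plus CaCCinh-A01 and Chicago Sky Blue) for 25 min at room temperature. Chloride transport was started by switching to chloride-free gluconate stimulation solution, with fluorescence read for 15 min. Activity was expressed as % of a triple-combination CFTR modulator control (3 μM, 3 μM, 300 nM acute).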

[3] = target: T2, CFTR; test: Membrane Potential Dye, Enteroid Assay B; settings: for EC50: read-out: Ent. B EC50
How it was run: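 Enteroid cells loaded 25 min at room temperature with 20 μM methyl oxonol plus 30 μM CaCCinh-A01 and 30 μM Chicago Sky Blue, then switched to chloride-free gluconate buffer. Chloride transport was started by chloride-free stimulation solution, with fluorescence read for 15 min.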

[4] = NIH 3T3 cells, F508del correction

T2 sequence (P13569 with tags, fused parts or gaps DEL508-508): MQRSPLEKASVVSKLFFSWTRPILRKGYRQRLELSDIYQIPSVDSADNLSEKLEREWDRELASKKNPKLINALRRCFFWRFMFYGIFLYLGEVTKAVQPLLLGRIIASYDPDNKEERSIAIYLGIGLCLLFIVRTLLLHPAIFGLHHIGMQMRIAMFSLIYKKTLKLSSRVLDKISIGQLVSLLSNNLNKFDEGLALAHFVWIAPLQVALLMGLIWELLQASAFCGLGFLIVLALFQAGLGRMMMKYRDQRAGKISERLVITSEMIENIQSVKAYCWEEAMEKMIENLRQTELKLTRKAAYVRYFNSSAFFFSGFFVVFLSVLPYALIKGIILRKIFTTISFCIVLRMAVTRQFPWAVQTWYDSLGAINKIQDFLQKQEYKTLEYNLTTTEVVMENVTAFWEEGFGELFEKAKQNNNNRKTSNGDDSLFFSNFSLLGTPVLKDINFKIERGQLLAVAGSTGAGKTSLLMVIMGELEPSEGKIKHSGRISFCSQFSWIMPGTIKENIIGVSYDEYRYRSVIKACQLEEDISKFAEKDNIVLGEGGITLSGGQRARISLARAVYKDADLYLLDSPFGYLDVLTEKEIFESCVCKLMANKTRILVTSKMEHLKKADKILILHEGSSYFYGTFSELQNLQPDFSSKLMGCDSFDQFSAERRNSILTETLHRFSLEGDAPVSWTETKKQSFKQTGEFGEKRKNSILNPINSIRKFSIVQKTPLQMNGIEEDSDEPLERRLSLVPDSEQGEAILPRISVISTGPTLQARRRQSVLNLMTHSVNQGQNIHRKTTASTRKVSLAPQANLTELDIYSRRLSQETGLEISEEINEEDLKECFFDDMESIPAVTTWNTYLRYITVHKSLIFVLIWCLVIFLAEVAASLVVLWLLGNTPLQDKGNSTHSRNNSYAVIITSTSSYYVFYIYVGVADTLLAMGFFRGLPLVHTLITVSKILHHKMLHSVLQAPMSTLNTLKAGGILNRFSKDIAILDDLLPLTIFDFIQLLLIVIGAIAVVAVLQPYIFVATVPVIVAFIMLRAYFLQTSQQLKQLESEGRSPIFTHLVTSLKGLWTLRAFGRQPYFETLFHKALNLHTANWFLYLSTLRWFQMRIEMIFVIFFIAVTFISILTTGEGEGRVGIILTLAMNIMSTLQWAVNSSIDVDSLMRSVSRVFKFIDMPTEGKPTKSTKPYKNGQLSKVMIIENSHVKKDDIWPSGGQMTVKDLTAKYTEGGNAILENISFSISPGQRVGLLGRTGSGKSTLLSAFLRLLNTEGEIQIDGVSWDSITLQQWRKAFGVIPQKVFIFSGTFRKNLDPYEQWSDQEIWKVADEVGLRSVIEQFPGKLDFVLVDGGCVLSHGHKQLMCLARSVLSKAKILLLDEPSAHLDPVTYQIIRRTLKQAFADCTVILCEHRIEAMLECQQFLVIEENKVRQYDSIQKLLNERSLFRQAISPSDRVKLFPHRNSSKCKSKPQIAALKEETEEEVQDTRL
T1 sequence (P13569 with tags, fused parts or gaps DEL508-508): as above

Emax ([1]; Table 8) [%] | EC50 ([1]; Table 8) [µM] | Ent. A Max Activity ([2]; Table 8) | EC50 ([2]; Table 8) [µM] | Ent. B Max Activity ([3]; Table 8) | EC50 ([3]; Table 8) [µM] | EC50 [1, 4] [µM] | Ent. A Max Activity ([2]; Enteroid Assay A) | EC50 ([2]; Enteroid Assay A) [µM] | EC50 ([3]; Enteroid Assay B) [µM] | Structure (SMILES)
> 60 | < 1 | +++ (+++ is >60%) | 1 to 3 | ++ (++ is 306%) | < 1 |  |  |  |  | Cc1cccc(C)c1-c1cc2nc(n1)NS(=O)(=O)c1ccnc(c1)C(=O)N[C@H](CC1CCCCC1)CO2 [Compound 142]
 |  |  |  |  |  | < 1 | +++ (+++ is >600%) | < 1 |  | Cc1ccccc1-c1cc2nc(n1)NS(=O)(=O)c1cccc(c1)C(=O)N[C@H](CC1CCCCC1)CO2 [Compound 316]
> 60 | < 1 | +++ (+++ is >60%) | < 1 |  |  |  |  |  |  | Cc1cccc(C)c1-c1cc2nc(n1)NS(=O)(=O)c1cccc(c1)C(=O)N[C@H](C(C)(C)C)CO2 [Compound 361]
> 60 | < 1 | +++ (+++ is >60%) | < 1 |  |  |  |  |  |  | Cc1cccc(C)c1-c1cc2nc(n1)NS(=O)(=O)c1cccc(n1)C(=O)N[C@H](CC1CCCCC1)CO2 [Compound 411]

Continued, molecule first:

Structure (SMILES) | Emax ([1]; Table 8) [%] | EC50 ([1]; Table 8) [µM] | Ent. A Max Activity ([2]; Table 8) | EC50 ([2]; Table 8) [µM] | Ent. B Max Activity ([3]; Table 8) | EC50 ([3]; Table 8) [µM] | EC50 [1, 4] [µM] | Ent. A Max Activity ([2]; Enteroid Assay A) | EC50 ([2]; Enteroid Assay A) [µM] | EC50 ([3]; Enteroid Assay B) [µM]
COc1cccc(C)c1-c1cc2nc(n1)NS(=O)(=O)c1cccc(c1)C(=O)N[C@H](CC(C)C)CO2 [Compound 318] |  |  |  |  |  |  | < 1 | +++ (+++ is >600%) | 1 to 3 | 
Cc1ccccc1-c1cc2nc(n1)NS(=O)(=O)c1cccc(c1)C(=O)N[C@H](CC(C)C)CO2 [Compound 329] |  |  |  |  |  |  | < 1 | +++ (+++ is >600%) | < 1 | 
Cc1cccc(C)c1-c1cc2nc(n1)NS(=O)(=O)c1cccc(c1)C(=O)NC[C@@H](Cc1ccccc1)O2 [Compound 347] |  |  |  |  |  |  | < 1 | +++ (+++ is >600%) | < 1 | 
Cc1cccc(C)c1-c1cc2nc(n1)NS(=O)(=O)c1cccc(c1)C(=O)N[C@H](Cc1ccccc1)CO2 [Compound 350] |  |  |  |  |  |  | < 1 | +++ (+++ is >600%) | < 1 | 
Cc1cccc(C)c1-c1cc2nc(n1)NS(=O)(=O)c1cccc(c1)C(=O)N[C@H](CC1CCCCC1)CO2 [Compound 365] |  |  |  |  |  |  | < 1 | +++ (+++ is >600%) | < 1 | < 1
Cc1cccc(C)c1-c1cc2nc(n1)NS(=O)(=O)c1cncc(c1)C(=O)N[C@H](CC1CCCCC1)CO2 [Compound 412] | > 60 | < 1 | +++ (+++ is >60%) | < 1 |  |  |  |  |  | 
Cc1cccc(C)c1-c1cc2nc(n1)NS(=O)(=O)c1cccc(c1)C(=O)N[C@H](C1CCCCC1)CO2 [Compound 493] | > 60 | < 1 | +++ (+++ is >60%) | < 1 |  |  |  |  |  | 
Cc1cccc(C)c1-c1cc2nc(n1)NS(=O)(=O)c1cccc(c1)C(=O)N[C@H](C(CC(C)C)CC(C)C)CO2 [Compound 494] | > 60 | < 1 | +++ (+++ is >60%) | < 1 |  |  |  |  |  | 
